Test results taken from ChEMBL document CHEMBL1201862, “PubChem BioAssay data set” (2004).
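Exposure lasted 48 hours, with cells grown in 96-well plates and compounds tested at five concentrations. At the GI50, growth is halved.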 Activity calls are given as the source filed them. No stated cut-off is given here; in the data, active = GI50 up to about 1.1 µM and inactive = higher.

What was measured:
Assay in all cases: NCI tumour cell line growth inhibition, 48 h
COLO 205 = test system: COLO 205
NCI/ADR-RES = test system: NCI/ADR-RES
TK-10 = test system: TK-10
A549 = test system: A549
MCF7 = test system: MCF7
MDA-N = test system: MDA-N
DU-145 = test system: DU-145
UO-31 = test system: UO-31
NCI-H522 = test system: NCI-H522
SNB-75 = test system: SNB-75
T47D = test system: T47D
HCT-15 = test system: HCT-15
SF-295 = test system: SF-295
HCC 2998 = test system: HCC 2998
U-251 = test system: U-251
MDA-MB-435 = test system: MDA-MB-435
HOP-62 = test system: HOP-62
HOP-92 = test system: HOP-92
HCT-116 = test system: HCT-116
K562 = test system: K562
ACHN = test system: ACHN
KM12 = test system: KM12
OVCAR-4 = test system: OVCAR-4
UACC-257 = test system: UACC-257
SK-OV-3 = test system: SK-OV-3
SK-MEL-5 = test system: SK-MEL-5
CAKI-1 = test system: CAKI-1
M14 = test system: M14
EKVX = test system: EKVX
SNB-19 = test system: SNB-19
RPMI-8226 = test system: RPMI-8226
PC-3 = test system: PC-3
Malme-3M = test system: Malme-3M
OVCAR-5 = test system: OVCAR-5
NCI-H460 = test system: NCI-H460
OVCAR-3 = test system: OVCAR-3
SK-MEL-2 = test system: SK-MEL-2
NCI-H226 = test system: NCI-H226
SK-MEL-28 = test system: SK-MEL-28
NCI-H23 = test system: NCI-H23
UACC-62 = test system: UACC-62
SN12C = test system: SN12C
BT-549 = test system: BT-549
MDA-MB-231 = test system: MDA-MB-231
A498 = test system: A498
SF-268 = test system: SF-268
786-0 = test system: 786-0

For `CC(C)(C)c1cc(COc2cc(COc3ccc(-c4c5c(nc6c4CCc4ccc(-c7c8ccccc8nc8ccccc78)cc4-6)-c4cc(-c6c7ccccc7nc7ccccc67)ccc4CC5)cc3)cc(OCc3cc(C(C)(C)C)cc(C(C)(C)C)c3)c2)cc(C(C)(C)C)c1`, the GI50 (COLO 205) was > 100 µM (inactive), the GI50 (NCI/ADR-RES) was > 100 µM (inactive) and the GI50 (TK-10) was > 100 µM (inactive). For the same compound, the GI50 (A549) was > 100 µM (inactive), the GI50 (MCF7) was > 100 µM (inactive) and the GI50 (MDA-N) was > 100 µM (inactive). For the same compound, the GI50 (DU-145) was > 100 µM (inactive), the GI50 (UO-31) was > 100 µM (inactive) and the GI50 (NCI-H522) was > 100 µM (inactive). The GI50 (SNB-75) was > 100 µM (inactive), the GI50 (T47D) was > 100 µM (inactive) and the GI50 (HCT-15) was greater than 100 µM. For the same compound, the GI50 (SF-295) was > 100 µM (inactive), the GI50 (HCC 2998) was 80.5 µM (inactive) and the GI50 (U-251) was > 100 µM (inactive). The GI50 (MDA-MB-435) was > 100 µM (inactive), the GI50 (HOP-62) was > 100 µM (inactive) and the GI50 (HOP-92) was > 100 µM (inactive). The GI50 (HCT-116) was > 100 µM (inactive), the GI50 (K562) was > 100 µM (inactive) and the GI50 (ACHN) was > 100 µM (inactive). For the same compound, the GI50 (KM12) was > 100 µM (inactive), the GI50 (OVCAR-4) was > 100 µM (inactive) and the GI50 (UACC-257) was > 100 µM (inactive). The GI50 (SK-OV-3) was > 100 µM (inactive), the GI50 (SK-MEL-5) was > 100 µM (inactive) and the GI50 (CAKI-1) was > 100 µM (inactive). For the same compound, the GI50 (M14) was > 100 µM (inactive), the GI50 (EKVX) was > 100 µM (inactive) and the GI50 (SNB-19) was > 100 µM (inactive). For the same compound, the GI50 (RPMI-8226) was > 100 µM (inactive), the GI50 (PC-3) was > 100 µM (inactive) and the GI50 (Malme-3M) was 89.3 µM (inactive). The GI50 (OVCAR-5) was > 100 µM (inactive), the GI50 (NCI-H460) was > 100 µM (inactive) and the GI50 (OVCAR-3) was > 100 µM (inactive). For the same compound, the GI50 (SK-MEL-2) was > 100 µM (inactive), the GI50 (NCI-H226) was > 100 µM (inactive) and the GI50 (SK-MEL-28) was > 100 µM (inactive). The GI50 (NCI-H23) was > 100 µM (inactive), the GI50 (UACC-62) was > 100 µM (inactive) and the GI50 (SN12C) was > 100 µM (inactive). For the same compound, the GI50 (BT-549) was > 100 µM (inactive), the GI50 (MDA-MB-231) was > 100 µM (inactive) and the GI50 (A498) was > 100 µM (inactive). For the same compound, the GI50 (SF-268) was > 100 µM (inactive) and the GI50 (786-0) was > 100 µM (inactive).
